{"source": "PubChem BioAssay (NCI)", "assay_in_all_cases": "DTP human tumour cell line panel, 48 h", "key": {"[1]": {"test_system": "SF-539 CNS"}, "[2]": {"test_system": "SK-MEL-28 melanoma"}, "[3]": {"test_system": "SNB-19 CNS"}, "[4]": {"test_system": "SK-OV-3 ovarian"}, "[5]": {"test_system": "TK-10 renal"}, "[6]": {"test_system": "MDA-MB-435"}, "[7]": {"test_system": "HCT-15 colon"}, "[8]": {"test_system": "HS 578T breast"}, "[9]": {"test_system": "SF-268 CNS"}, "[10]": {"test_system": "K-562 leukemia"}}, "note": "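Dose response: 5 concentrations. Exposure: 48 h. Format: 96-well plates. Endpoint: linear interpolation; highest concentration if not reached. At the GI50, growth is halved. At the TGI there is no net growth.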"}
{"smiles": "COc1cc(-n2cnc(-c3ccc(Cl)cc3)c2)cc(OC)c1OC", "values": [{"measurement": "GI50", "setting": "[1]", "value": 17.1, "unit": "µM"}, {"measurement": "TGI", "setting": "[1]", "value": 34.4, "unit": "µM"}, {"measurement": "GI50", "setting": "[2]", "value": 15.5, "unit": "µM"}, {"measurement": "TGI", "setting": "[2]", "value": 29.7, "unit": "µM"}, {"measurement": "GI50", "setting": "[3]", "value": "> 100", "unit": "µM"}, {"measurement": "TGI", "setting": "[3]", "value": "> 100", "unit": "µM"}, {"measurement": "GI50", "setting": "[4]", "value": 21.2, "unit": "µM"}, {"measurement": "TGI", "setting": "[4]", "value": 52.2, "unit": "µM"}, {"measurement": "GI50", "setting": "[5]", "value": 15, "unit": "µM"}, {"measurement": "TGI", "setting": "[5]", "value": 37.4, "unit": "µM"}, {"measurement": "GI50", "setting": "[6]", "value": 38.4, "unit": "µM"}, {"measurement": "TGI", "setting": "[6]", "value": "> 100", "unit": "µM"}, {"measurement": "GI50", "setting": "[7]", "value": 16.8, "unit": "µM"}, {"measurement": "TGI", "setting": "[7]", "value": 36.3, "unit": "µM"}, {"measurement": "GI50", "setting": "[8]", "value": 49.2, "unit": "µM"}, {"measurement": "TGI", "setting": "[8]", "value": "> 100", "unit": "µM"}, {"measurement": "GI50", "setting": "[9]", "value": 22.9, "unit": "µM"}, {"measurement": "TGI", "setting": "[9]", "value": 63.2, "unit": "µM"}, {"measurement": "GI50", "setting": "[10]", "value": 7.33, "unit": "µM"}, {"measurement": "TGI", "setting": "[10]", "value": 29.5, "unit": "µM"}]}
{"smiles": "Cc1c(-c2nnc(-c3ccc(F)cc3)o2)nnn1-c1ccnc2c(C(F)(F)F)cccc12", "values": [{"measurement": "GI50", "setting": "[1]", "value": 26.5, "unit": "µM"}, {"measurement": "TGI", "setting": "[1]", "value": "> 100", "unit": "µM"}, {"measurement": "GI50", "setting": "[2]", "value": 22.6, "unit": "µM"}, {"measurement": "TGI", "setting": "[2]", "value": 74.1, "unit": "µM"}, {"measurement": "GI50", "setting": "[3]", "value": 25.9, "unit": "µM"}, {"measurement": "TGI", "setting": "[3]", "value": 82.3, "unit": "µM"}, {"measurement": "GI50", "setting": "[4]", "value": 30, "unit": "µM"}, {"measurement": "TGI", "setting": "[4]", "value": "> 100", "unit": "µM"}, {"measurement": "GI50", "setting": "[5]", "value": 32.2, "unit": "µM"}, {"measurement": "TGI", "setting": "[5]", "value": 98.8, "unit": "µM"}, {"measurement": "GI50", "setting": "[6]", "value": 77.6, "unit": "µM"}, {"measurement": "TGI", "setting": "[6]", "value": "> 100", "unit": "µM"}, {"measurement": "GI50", "setting": "[7]", "value": "> 100", "unit": "µM"}, {"measurement": "TGI", "setting": "[7]", "value": "> 100", "unit": "µM"}, {"measurement": "GI50", "setting": "[8]", "value": 15.5, "unit": "µM"}, {"measurement": "TGI", "setting": "[8]", "value": 53.9, "unit": "µM"}, {"measurement": "GI50", "setting": "[9]", "value": 26.7, "unit": "µM"}, {"measurement": "TGI", "setting": "[9]", "value": "> 100", "unit": "µM"}, {"measurement": "GI50", "setting": "[10]", "value": 19.8, "unit": "µM"}, {"measurement": "TGI", "setting": "[10]", "value": "> 100", "unit": "µM"}]}
{"smiles": "O=C1/C(=C/c2ccccc2F)CN(C(=O)C(Cl)Cl)C/C1=C\\c1ccccc1F", "values": [{"measurement": "GI50", "setting": "[1]", "value": 0.431, "unit": "µM"}, {"measurement": "TGI", "setting": "[1]", "value": 1.78, "unit": "µM"}, {"measurement": "GI50", "setting": "[2]", "value": 0.477, "unit": "µM"}, {"measurement": "TGI", "setting": "[2]", "value": 1.47, "unit": "µM"}, {"measurement": "GI50", "setting": "[3]", "value": 0.349, "unit": "µM"}, {"measurement": "TGI", "setting": "[3]", "value": 1.46, "unit": "µM"}, {"measurement": "GI50", "setting": "[4]", "value": 1.65, "unit": "µM"}, {"measurement": "TGI", "setting": "[4]", "value": 3.28, "unit": "µM"}, {"measurement": "GI50", "setting": "[5]", "value": 1.61, "unit": "µM"}, {"measurement": "TGI", "setting": "[5]", "value": 3.02, "unit": "µM"}, {"measurement": "GI50", "setting": "[6]", "value": 0.313, "unit": "µM"}, {"measurement": "TGI", "setting": "[6]", "value": 1.01, "unit": "µM"}, {"measurement": "GI50", "setting": "[7]", "value": 0.217, "unit": "µM"}, {"measurement": "TGI", "setting": "[7]", "value": 0.694, "unit": "µM"}, {"measurement": "GI50", "setting": "[8]", "value": 0.985, "unit": "µM"}, {"measurement": "TGI", "setting": "[8]", "value": 5.51, "unit": "µM"}, {"measurement": "GI50", "setting": "[9]", "value": 0.916, "unit": "µM"}, {"measurement": "TGI", "setting": "[9]", "value": 3.72, "unit": "µM"}, {"measurement": "GI50", "setting": "[10]", "value": "< 0.04", "unit": "µM"}, {"measurement": "TGI", "setting": "[10]", "value": "> 100", "unit": "µM"}]}
